Laboratory results as given in ChEMBL document CHEMBL4619760, “Anti-inflammatory Efficacy of Combined Natural Alkaloid Berberine and S1PR Modulator Fingolimod at Low Doses in Ulcerative Colitis Preclinical Models” (J Nat Prod, 2020).
Activity calls are given as the source filed them. The rule behind the calls is not given here.

What was measured:
Mus musculus [1] = experiment: Anti-colitis activity against DSS-induced C57BL/6 mouse model of chronic relapsing colitis assessed as reduction in stool consistency score at 0.3 mg/kg, po administered once daily for 30 days starting from day 13 post DSS-challenge measured on day 43; format: functional, organism-based
[2] = Toxicity in DSS-induced C57BL/6 mouse model of chronic relapsing colitis assessed as induction of abnormalities in brain at 0.15 mg/kg, po administered once daily for 30 days starting from day 13 post DSS-challenge cotreated with 20 mg/kg berberine by hematoxylin and eosin staining based light microscopic analysis; format: organism-based; conditions: in vivo, 720 h
Mus musculus [3] = experiment: Anti-colitis activity against DSS-induced C57BL/6 mouse model of chronic relapsing colitis assessed as reduction in stool consistency score at 0.15 mg/kg, po administered once daily for 30 days starting from day 13 post DSS-challenge cotreated with 20 mg/kg berberine measured on day 24; format: functional, organism-based
Mus musculus [4] = experiment: Anti-colitis activity against DSS-induced C57BL/6 mouse model of chronic relapsing colitis assessed as reduction in stool bleeding at 0.3 mg/kg, po administered once daily for 30 days starting from day 13 post DSS-challenge measured on day 38; format: functional, organism-based
Mus musculus [5] = experiment: Antiinflammatory activity against DSS-induced C57BL/6 mouse model of subchronic relapsing colitis assessed as reduction in TNFalpha mRNA level at 0.3 mg/kg, po administered once daily for 14 days starting from day 5 post DSS-challenge by RT-qPCR analysis; format: functional, organism-based
Mus musculus [6] = experiment: Anti-colitis activity against DSS-induced C57BL/6 mouse model of subchronic relapsing colitis assessed as reduction in stool bleeding score at 0.15 mg/kg, po administered once daily for 14 days starting from day 5 post DSS-challenge cotreated with 20 mg/kg berberine and measured after day 12 to day 18; format: functional, organism-based
Mus musculus [7] = experiment: Anti-colitis activity against DSS-induced C57BL/6 mouse model of chronic relapsing colitis assessed as reduction in disease activity index at 0.3 mg/kg, po administered once daily for 30 days starting from day 13 post DSS-challenge and measured on day 24; format: functional, organism-based
Mus musculus [8] = experiment: Anti-colitis activity against DSS-induced C57BL/6 mouse model of subchronic relapsing colitis assessed as reduction in disease activity index at 0.15 mg/kg, po administered once daily for 14 days starting from day 5 post DSS-challenge cotreated with 20 mg/kg berberine measured after day 12 to day 18; format: functional, organism-based
Mus musculus [9] = experiment: Anti-colitis activity against DSS-induced C57BL/6 mouse model of chronic relapsing colitis assessed as reduction in stool consistency score at 0.3 mg/kg, po administered once daily for 30 days starting from day 13 post DSS-challenge measured on day 24; format: functional, organism-based
Mus musculus [10] = experiment: Anti-colitis activity against DSS-induced C57BL/6 mouse model of chronic relapsing colitis assessed as reduction in DSS-induced loss of colon crypt and columnar epithelium at 0.3 mg/kg, po administered once daily for 30 days starting from day 13 post DSS-challenge; format: functional, organism-based
Mus musculus [11] = experiment: Effect on total STAT3 expression in DSS-induced C57BL/6 mouse model of subchronic relapsing colitis at 0.15 mg/kg, po administered once daily for 14 days starting from day 5 post DSS-challenge cotreated with 20 mg/kg berberine by Western blot analysis; format: ADME, organism-based; conditions: in vivo, 336 h
[12] = Toxicity in DSS-induced C57BL/6 mouse model of chronic relapsing colitis assessed as induction of abnormalities in lung at 0.15 mg/kg, po administered once daily for 30 days starting from day 13 post DSS-challenge cotreated with 20 mg/kg berberine by hematoxylin and eosin staining based light microscopic analysis; format: organism-based; conditions: in vivo, 720 h
Mus musculus [13] = experiment: Anti-colitis activity against DSS-induced C57BL/6 mouse model of subchronic relapsing colitis assessed as reduction in DSS-induced colon swelling at 0.3 mg/kg, po administered once daily for 30 days starting from day 13 post DSS-challenge; format: functional, organism-based
Mus musculus [14] = experiment: Anti-colitis activity against DSS-induced C57BL/6 mouse model of chronic relapsing colitis assessed as reduction in DSS-induced inflammatory cell infiltration in colon at 0.3 mg/kg, po administered once daily for 30 days starting from day 13 post DSS-challenge by hematoxylin and eosin staining based light microscopic analysis; format: functional, organism-based
Mus musculus [15] = experiment: Effect on total STAT3 expression in DSS-induced C57BL/6 mouse model of subchronic relapsing colitis at 0.3 mg/kg, po administered once daily for 14 days starting from day 5 post DSS-challenge by Western blot analysis; format: ADME, organism-based; conditions: in vivo, 336 h
[16] = Toxicity in DSS-induced C57BL/6 mouse model of chronic relapsing colitis assessed as induction of abnormalities in kidney at 0.15 mg/kg, po administered once daily for 30 days starting from day 13 post DSS-challenge cotreated with 20 mg/kg berberine by hematoxylin and eosin staining based light microscopic analysis; format: organism-based; conditions: in vivo, 720 h
Mus musculus [17] = experiment: Anti-colitis activity against DSS-induced C57BL/6 mouse model of subchronic relapsing colitis assessed as reduction in phosphorylated STAT3 level at 0.3 mg/kg, po administered once daily for 14 days starting from day 5 post DSS-challenge by Western blot analysis; format: functional, organism-based
Mus musculus [18] = experiment: Anti-colitis activity against DSS-induced C57BL/6 mouse model of subchronic relapsing colitis assessed as effect on body weight at 0.15 mg/kg, po administered once daily for 14 days starting from day 5 post DSS-challenge cotreated with 20 mg/kg berberine and measured after day 12 to day 18; format: functional, organism-based
Mus musculus [19] = experiment: Anti-colitis activity against DSS-induced C57BL/6 mouse model of subchronic relapsing colitis assessed as reduction in stool consistency scores at 0.3 mg/kg, po administered once daily for 14 days starting from day 5 post DSS challenge and measured on day 19; format: functional, organism-based
Mus musculus [20] = experiment: Anti-colitis activity against DSS-induced C57BL/6 mouse model of subchronic relapsing colitis assessed as reduction in phosphorylated STAT3 level at 0.3 mg/kg, po administered once daily for 14 days starting from day 5 post DSS-challenge cotreated with 20 mg/kg berberine by Western blot analysis; format: functional, organism-based
Mus musculus [21] = experiment: Anti-colitis activity against DSS-induced C57BL/6 mouse model of subchronic relapsing colitis assessed as reduction in DSS-induced colon shortening at 0.3 mg/kg, po administered once daily for 14 days starting from day 5 post DSS-challenge; format: functional, organism-based
Mus musculus [22] = experiment: Anti-colitis activity against DSS-induced C57BL/6 mouse model of subchronic relapsing colitis assessed as reduction in DSS-induced colon shortening at 0.15 mg/kg, po administered once daily for 14 days starting from day 5 post DSS-challenge cotreated with 20 mg/kg berberine and measured after day 12 to day 18; format: functional, organism-based
Mus musculus [23] = experiment: Anti-colitis activity against DSS-induced C57BL/6 mouse model of subchronic relapsing colitis assessed as reduction in spleen swelling at 0.15 mg/kg, po administered once daily for 14 days starting from day 5 post DSS-challenge cotreated with 20 mg/kg berberine and measured after day 12 to day 18; format: functional, organism-based
THP-1 = experiment: Antiinflammatory activity in human THP1 cells assessed as reduction in LPS-induced IL6 mRNA level at 0.5 uM cotreated with 0.5 uM berberine incubated for 1 hr followed by LPS challenge and measured after 4 to 6 hrs by q-PCR method; format: functional, cell-based
Mus musculus [24] = experiment: Anti-colitis activity against DSS-induced C57BL/6 mouse model of chronic relapsing colitis assessed as reduction in disease activity index at 0.15 mg/kg, po administered once daily for 30 days starting from day 13 post DSS-challenge cotreated with 20 mg/kg berberine and measured on day 43; format: functional, organism-based

CCCCCCCCc1ccc(CCC(N)(CO)CO)cc1.Cl [FINGOLIMOD HYDROCHLORIDE]
Activity (Mus musculus [1]): Active | Activity [2]: Non-Toxic | Activity (Mus musculus [3]): Active | Activity (Mus musculus [4]): Active | Activity (Mus musculus [5]): Active | Activity (Mus musculus [6]): Active | Activity (Mus musculus [7]): Active | Activity (Mus musculus [8]): Active | Activity (Mus musculus [9]): Active | Activity (Mus musculus [10]): Active | Activity (Mus musculus [11]): Non-Toxic | Activity [12]: Non-Toxic | Activity (Mus musculus [13]): inactive | Activity (Mus musculus [14]): Active | Activity (Mus musculus [15]): Non-Toxic | Activity [16]: Non-Toxic | Activity (Mus musculus [17]): Active | Activity (Mus musculus [18]): inactive | Activity (Mus musculus [19]): Active | Activity (Mus musculus [20]): Active | Activity (Mus musculus [21]): Active | Activity (Mus musculus [22]): Active | Activity (Mus musculus [23]): inactive | Activity (THP-1): Active | Activity (Mus musculus [24]): Active
